# Measured values as given in paper PMC9820559, “Investigation of the Fuzzy Complex between RSV Nucleoprotein and Phosphoprotein to Optimize an Inhibition Assay by Fluorescence Polarization” (International Journal of Molecular Sciences, 2022).
# Square brackets hold non-standard residues; d marks the D form. Ends that are not written are not given here. Peptide text beside a SMILES is read from it. pS = N[C@@H](COP(=O)(O)O)C(=O)O
# Legend:
# RSV N-RNA complex = target: T1, RSV N-RNA complex (Human respiratory syncytial virus A, UniProt P03418); experiment: Fluorescence polarization inhibition of N-RNA binding to fluorescent probes; conditions: Ki, probe BCN11EE, [N-RNA] 1 µM; IC50-to-Ki server
# T1 construct: Full-length N was produced by co-expression with the C-terminal domain of RSV P protein in E. coli BL21(DE3); made in house; host or cells: E. coli BL21(DE3), co-transformed with pET-N and pGEX-P(161–241)
# Text: We next performed inhibition experiments for the F11-(N-RNA) complex by M76 (Figure 4B). FP values decreased with increasing competitor concentration. At saturation, FP nearly reached the value of free F11, showing that the F11 peptide could be nearly completely displaced. Since the same concentration range was used for NNTD and N-RNA, poor solubility of M76 can be ruled out to explain the saturation observed before complete displacement of F11 in the presence NNTD (Figure 3C). This reinforces the hypothesis of a second binding site on NNTD, outside the canonical P-binding site. […]
# To probe the potency of M76 as an inhibitor, we carried out competition experiments with the M76 molecule and several BCNn peptides. M76 was able to displace the fluorescent probes from N-RNA, and inhibition curves were obtained (Figure 8E). Since we used different N concentrations to have similar dynamic ranges of FP for the series of fluorescent peptides, we cannot directly compare M76 IC50s. However, Kis may be compared.
# Fluorescence polarization measurements were carried out on a Paradigm Detection Platform (Beckman Coulter, Brea, CA, USA) operating with a microplate reader, a fluorescein detection cartridge (excitation range 485/20 nm, emission range 535/25 nm for both parallel and perpendicular components) and the SpectraMax Pro 6.1 software (Molecular Devices, San Jose, CA, USA). Samples were placed in polystyrene black flat bottom 96-well microplates (Cellstar, Greiner bio-one, Frickenhausen, Germany) with 20 µL final volume in each well. If not stated otherwise, the final concentration of fluorescent ligands was 200 nM. The buffer was either 20 mM MES pH 6.5, salt-free or with 250 mM NaCl, or 20 mM Tris pH 8.0 salt-free or with 100 mM NaCl, supplemented with 0.01% Brij-35. Mixing was done using the corresponding plate reader option. The temperature was set to 20 °C. Data were recorded in top reading mode. Measurements were done in triplicate and after an incubation time of 30 min, if not indicated otherwise. Fluorescence polarization (FP) in mFP units was determined from the parallel (I∥) and perpendicular (I⊥) components of the emitted light according to Equation (4). A grating factor G of 1.2 was determined using 1 nM fluorescein in 1 mM NaOH and assuming a theoretical FP of 27 mFP [48]. Background signal was measured from wells containing only buffer, and the mean value was subtracted from each I∥ and I⊥ component. (4) FP (mP)=1000×(I∥−G∗I⊥)/(I∥+G×I⊥)
# To assess inhibition of a complex between a fluorescent probe and N protein by peptides or the M76 molecule, the concentration of N was set to work with an FP range comprised between FPmin and ~80% FPmax. Peptides were added from 1 or 2 mM stock solution in water at neutral pH. M76 was added from 10 or 20 mM stock solutions in ethanol or in DMSO. […] Inhibition data were fitted with Origin 7, and in parallel with the Excel solver module. All data were compatible with an absence of cooperativity. FPmax and FPmin were fitted, and the maximal inhibition %i,max was set to 100%. (11) %i=100×[1−(FP−FPmin)/(FPmax−FPmin)] (12) %i=%i,max×[inhibitor]/[inhibitor]+IC50
# Inhibition constants Ki were calculated on the IC50-to-Ki converter for a protein-ligand-inhibitor system (https://bioinfo-abcc.ncifcrf.gov/IC50_Ki_Converter/index.php, accessed on 24 August 2022), assuming a competitive mechanism (Equation (13)). This tool takes into account the free concentrations of protein and ligand. (13) Ki=(IC50−[protein]/2)/([peptide]/Kd+1)
# RSV NNTD = target: T2, RSV NNTD (Human respiratory syncytial virus A, UniProt P03418); experiment: NMR titration of 15N-labeled NNTD (1H-15N HSQC chemical shift perturbations); type: binding; conditions: 20 mM MES pH 6.5, 250 mM NaCl, 20 °C; single site model; mean of 26 individual values; read-out: mean Kd from residue-specific Kds
# T2 construct: The N-terminal domain NNTD (residues 31–252), containing a C-terminal 6x histidine tag; 6xHis (C); made in house; host or cells: E. coli BL21(DE3)
# Text: Here, as P protein is constitutively phosphorylated on Ser232 and Ser237 residues in cells, we first investigated the impact of phosphorylation on the affinity of the NNTD-PCtail complex. We performed an NMR titration experiment by adding increasing amounts of pP11 peptide, where Ser232 and Ser237 residues were replaced by O-phosphoserines (pSer, Figure 1A), to a solution of ^15N-labeled NNTD, and measured 2D ^1H-^15N HSQC spectra (Figure 2A). We worked in the same buffer as with P12. At pH 6.5, the pSer sidechains are expected to be mostly negatively charged. Addition of pP11 induced perturbations in the HSQC spectrum of NNTD, in particular chemical shift perturbations (CSPs). […] We measured combined ^1H and ^15N amide CSPs (Equation (1)) for NNTD signals in a fast chemical exchange regime, i.e., signals that shifted in the spectrum without broadening at intermediate titration points (e.g., Ile129 in Figure 2A). Significant CSPs were located in and around the P-binding pocket, confirming that pP11 binds to the previously determined P-binding epitope on NNTD (Figure 2B,C). […]
# Overall, signals of bound NNTD were broader than those of unbound NNTD (Figure 2A). […] From chemical shift differences measured for these residues we determined an exchange rate kex of ~800 s^−1 (from Equation (3)) between free and bound NNTD, which indicates a fast dynamic process. […]
# [1] = target: T3, RSV N-RNA complex (full-length N protein in ring-shaped complexes with bacterial RNA) (human respiratory syncytial virus, UniProt P03418 1-391); experiment: fluorescence polarisation; competition: unlabeled pP11 varied against 200 nM BCN_(11EE) on 1 µM N-RNA; Tris pH 8 buffer; Hill equation; Ki from the IC50-to-Ki server; conditions: both partners purified
# T3 construct: human RSV nucleoprotein N, full length; concentrations are of N protomer; also called N-RNA rings; source: in lysate for the co-purification; purified (glutathione-Sepharose, thrombin, Superdex 200) as N-RNA complex; copies: 10-11
# T3 sequence (looked up): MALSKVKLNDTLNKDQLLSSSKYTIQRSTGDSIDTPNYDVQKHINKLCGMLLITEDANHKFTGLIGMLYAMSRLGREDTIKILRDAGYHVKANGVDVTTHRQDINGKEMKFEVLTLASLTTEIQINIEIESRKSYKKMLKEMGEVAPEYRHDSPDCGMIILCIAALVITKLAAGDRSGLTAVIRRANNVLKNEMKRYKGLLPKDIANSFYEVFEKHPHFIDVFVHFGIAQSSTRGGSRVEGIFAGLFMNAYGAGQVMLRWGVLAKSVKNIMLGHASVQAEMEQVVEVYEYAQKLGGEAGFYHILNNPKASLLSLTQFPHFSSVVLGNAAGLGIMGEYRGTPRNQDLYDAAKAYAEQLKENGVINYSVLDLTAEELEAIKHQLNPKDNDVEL
Molecule,Ki (RSV N-RNA complex) [µM],Kd (RSV NNTD) [µM],IC50 [1] [µM]
CC(C)C[C@H](NC(=O)[C@H](COP(=O)(O)O)NC(=O)[C@H](CC(C)C)NC(=O)[C@H](CC(=O)O)NC(=O)[C@H](CC(N)=O)NC(=O)[C@H](CC(=O)O)NC(=O)[C@H](COP(=O)(O)O)NC(=O)[C@@H](N)CC(=O)O)C(=O)N[C@@H](CCC(=O)O)C(=O)N[C@@H](CC(=O)O)C(=O)N[C@@H](Cc1ccccc1)C(=O)O [pP11] (H-D[pS]DNDL[pS]LEDF-OH),1.4,17 ± 4.5,
"D[pS]DNDL[pS]LEDF (C-terminal 11 residues of RSV phosphoprotein P with Ser232 and Ser237 as O-phosphoserines; source: bought: GeneCust (synthetic peptide, >95% purity)) [pP11 peptide (RSV P C-terminal 11-mer with O-phosphoserines at 232 and 237)]",,,6.9 ± 1.2
